{"source": "patent US20240122926A1", "about": "“APELIN RECEPTOR MODULATORS FOR TREATING MUSCLE CONDITIONS” (priority 2022, published 2024)", "key": {"[1]": {"tested_on": "healthy volunteers aged ≥65 years", "assay": "Phase 1b bed rest study, safety (TEAEs)", "assay_type": "in vivo", "experimental": "Adverse events are coded using the Medical Dictionary for Regulatory Activities. The number of events, incidence, and percentage of TEAEs are calculated overall by system organ class, preferred term, and treatment group for each cohort and treatment group. The number and percentage of subjects with TEAEs are further summarized by severity and relationship to study drug. AEs related to study drug, AEs leading to withdrawal, SAEs, and deaths are also similarly summarized and/or listed in a similar manner."}, "[2]": {"tested_on": "healthy volunteers aged ≥65 years", "assay": "Phase 1b bed rest study, muscle protein synthesis rate (heavy water, vastus lateralis microbiopsy)", "assay_type": "in vivo, human", "experimental": "Heavy Water Consumption and Assessments. For subjects in Part B only, heavy water, deuterated H2O (D2O), is provided to subjects to drink during the pre-treatment and treatment periods before breakfast, in the afternoon, and after fasting overnight, at timepoints described previously. Blood samples (10 mL) and urine samples are collected at timepoints described previously to assess skeletal muscle protein fractional synthetic rate (FSR).\nSkeletal muscle protein synthesis rate (%/time) for individual muscle proteins are compared first as a linear contrast including all doses versus placebo and then as individual dose comparisons to placebo.\nOne day before (baseline, D-1) and 5 (D5) and 10 (D10) days after initiation of bed rest, key muscle atrophy endpoints were measured: thigh circumference; cross-sectional area (CSA) and A-P diameter of vastus lateralis (ultrasound); ultrasound muscle quality grade, an index that quantifies fatty degeneration in muscle (ultrasound echo density); and muscle protein synthesis rate (biopsy). Parameters measured during the 10-day bed rest period include thigh circumference, muscle size, muscle quality (e.g., fatty degeneration), and muscle protein synthetic rate."}, "[3]": {"assay": "9-month oral toxicity study in dogs", "assay_type": "in vivo, dog", "experimental": "The updated exposure margins considering the highest maximum exposures in rats and dogs are calculated as follows: maximum exposure in the rat (male) was in the 14-day IV study and at the 300 mg/kg dose, the AUClast is 1070 μg*hr/mL; maximum exposure in dogs occurred at the 300 mg/kg dose in the 9-month oral toxicity study and the AUClast is 1310*μg·hr/mL."}, "[4]": {"assay": "Phase 1 study BGE-105-101 Part A (SAD), pharmacokinetics after IV infusion", "assay_type": "in vivo, human", "details": "for Dose-normalized AUCinf / Dose-normalized Cmax: unit assumed; for AUC(0-t) / AUC(0-inf) / half-life / Cmax: human, plasma; for AUC(0-t) / AUC(0-inf) / half-life: intravenous; for Cmax: iv, IV infusion", "experimental": "After a baseline period of 24 hours in the clinic, all subjects receive a LD, 1-hour infusion on Day 1. After a 48-hour wash-out period, in which PK and PK/PD data is collected, subjects receive a 23-hour infusion (1-hour LD followed by a 22-hour maintenance dose). See FIG. 10 for the different dose levels in each SAD cohort. See e.g., Table 3 below. Part A is double-blinded. The cohorts of Part A is conducted sequentially starting with SAD cohort 1.\nOn Day 1 for Part A, subjects receive LD, 1-hour infusion. On Day 3, after a 48-hour washout period, subjects then receive a 23-hour infusion (1-hour LD followed by a 22-hour MD). No earlier than 24 hours after the end of infusion, subjects is discharged from the clinic on Day 5 (End of Treatment Period [EOTP]). A treatment protocol for the SAD cohorts of Part A is outlined in FIG. 12 and is described in Table 9 below.\nRelevant plasma PK parameters are derived for BGE-105 by standard noncompartmental methods and tabulated along with descriptive statistics and graphs."}, "[5]": {"tested_on": "24-month-old C57BL/6 mice", "assay": "Activity monitoring wheel test in aged mice (frailty study)", "assay_type": "in vivo, mouse", "details": "275 ug/mL in drinking water; both experiments; average", "experimental": "The animals were housed with access to voluntary running wheels that wirelessly transmit running data to a computer for analysis. Voluntary running wheel activity levels were measured daily, and body weights were measured every 2 weeks.\nThe study concluded on Study Day 83. Activity wheel monitoring started on Study Day 1 and ended on Study Day 83 (Phase Day 64). The data was analyzed at the end of the study. […] For the frailty portion of the study, mice were assessed using an activity monitoring wheel which was monitored passively with a computer monitoring system.\nBGE-105 was administered in drinking water consumed ad libitum. The compound is mildly acidic when dissolved, resulting in a pH 4.5 solution. The deionized water was adjusted to pH 8.5 by adding 1N NaOH. […]\nThe activity-monitoring wheel is a running disk that monitors rotations. […] Activity was monitored passively and wirelessly with a computer monitoring system. Running wheel activity levels were monitored daily. […] Mouse activity levels were measured as the number of wheel revolutions per day for each mouse and converted into a daily count of kilometers run using the diameter of the wheel. Within each experimental group, the daily median value for activity was calculated. […] The daily differences between the distances run in each group were calculated and tested for an increasing trend using Kendall's rank correlation tau."}, "[6]": {"details": "SAD1 (60 mg/360 mg), Day 1, mean"}, "[7]": {"details": "SAD2 (120 mg/720 mg), Day 1, mean"}, "[8]": {"details": "SAD3 (240 mg/1440 mg), Day 1, mean"}}, "note": "“Also recorded” adds a separate entry of the source.", "data": [{"smiles": "COc1cccc(OC)c1-n1c(NS(=O)(=O)[C@@H](C)[C@H](C)c2ncc(C)cn2)nnc1-c1cncc(C)c1", "note": "[BGE-105, (2S,3R)—N-(4-(2,6-dimethoxyphenyl)-5-(5-methyl-3-pyridinyl)-4H-1,2,4-triazol-3-yl)-3-(5-methyl-2-pyrimidinyl)-2-butanesulfonamide]", "values": [{"measurement": "number of volunteers (out of 11) exhibiting TEAEs", "setting": "[1]; Cohort 1B", "value": 7}, {"measurement": "percent of volunteers exhibiting TEAEs", "setting": "[1]; Cohort 1B", "value": 64, "unit": "%"}, {"measurement": "serious / severe adverse effects", "setting": "[1]; Phase 1b bed rest study", "value": "no serious adverse effects; also recorded: no severe adverse effects"}, {"measurement": "tolerability", "setting": "[1]; Phase 1b bed rest study", "value": "well tolerated"}, {"measurement": "mean normalized fraction synthetic rate, range", "setting": "[2]; BGE-105 treated patients with elevated rate, 10 days bed rest", "value": "0.18-2.2"}, {"measurement": "number of patients (out of 11) with elevated rate of muscle protein synthesis", "setting": "[2]; after 10 days of bed rest", "value": 8}, {"measurement": "decrease in the synthetic rate of muscle myofibril proteins (FSR/day) from baseline", "setting": "[2]; vastus lateralis (placebo 58%)", "value": 36, "unit": "%"}, {"measurement": "predicted human exposure margin Human:Dog", "setting": "[3]; 240 mg loading dose + 1440 mg IV for 22 hours, 1036/1310", "value": 0.79}, {"measurement": "NOAEL", "setting": "[3]; dog", "value": "maximum dose tested"}, {"measurement": "AUC(0-t)", "setting": "[3]; dog, in vivo, dogs, 9-month oral toxicity study, 300 mg/kg, read-out: AUClast, maximum exposure", "value": 1310, "unit": "µg·h/mL"}, {"measurement": "dose proportionality / linearity of PK", "setting": "[4]; 3 SAD cohorts, dose vs Cmax and AUC", "value": "dose proportionality; also recorded: linear"}, {"measurement": "Dose-normalized AUCinf", "setting": "[4]; [6]", "value": 0.66, "unit": "µg·h/mL/mg"}, {"measurement": "Dose-normalized Cmax", "setting": "[4]; [6]", "value": 0.12, "unit": "µg/mL/mg"}, {"measurement": "Dose-normalized AUCinf", "setting": "[4]; [7]", "value": 0.49, "unit": "µg·h/mL/mg"}, {"measurement": "Dose-normalized Cmax", "setting": "[4]; [7]", "value": 0.11, "unit": "µg/mL/mg"}, {"measurement": "Dose-normalized AUCinf", "setting": "[4]; [8]", "value": 0.5, "unit": "µg·h/mL/mg"}, {"measurement": "Dose-normalized Cmax", "setting": "[4]; [8]", "value": 0.11, "unit": "µg/mL/mg"}, {"measurement": "AUC(0-t)", "setting": "[4]; 60 mg, SAD1 (60 mg/360 mg), Day 1, mean, read-out: AUC0-24", "value": 34.7, "unit": "µg·h/mL"}, {"measurement": "AUC(0-t)", "setting": "[4]; 60 mg, SAD1 (60 mg/360 mg), Day 1, mean, read-out: AUClast", "value": 37.4, "unit": "µg·h/mL"}, {"measurement": "AUC(0-t)", "setting": "[4]; 120 mg, SAD2 (120 mg/720 mg), Day 1, mean, read-out: AUC0-24", "value": 53.7, "unit": "µg·h/mL"}, {"measurement": "AUC(0-t)", "setting": "[4]; 120 mg, SAD2 (120 mg/720 mg), Day 1, mean, read-out: AUClast", "value": 56.8, "unit": "µg·h/mL"}, {"measurement": "AUC(0-t)", "setting": "[4]; 240 mg, SAD3 (240 mg/1440 mg), Day 1, mean, read-out: AUC0-24", "value": 107, "unit": "µg·h/mL"}, {"measurement": "AUC(0-t)", "setting": "[4]; 240 mg, SAD3 (240 mg/1440 mg), Day 1, mean, read-out: AUClast", "value": 114, "unit": "µg·h/mL"}, {"measurement": "AUC(0-t)", "setting": "[4]; SAD1 (60 mg/360 mg), Day 3, mean, read-out: AUC0-24", "value": 173, "unit": "µg·h/mL"}, {"measurement": "AUC(0-t)", "setting": "[4]; SAD1 (60 mg/360 mg), Day 3, mean, read-out: AUClast", "value": 306, "unit": "µg·h/mL"}, {"measurement": "AUC(0-t)", "setting": "[4]; SAD2 (120 mg/720 mg), Day 3, mean, read-out: AUC0-24", "value": 267, "unit": "µg·h/mL"}, {"measurement": "AUC(0-t)", "setting": "[4]; SAD2 (120 mg/720 mg), Day 3, mean, read-out: AUClast", "value": 450, "unit": "µg·h/mL"}, {"measurement": "AUC(0-t)", "setting": "[4]; SAD3 (240 mg/1440 mg), Day 3, mean, read-out: AUC0-24", "value": 612, "unit": "µg·h/mL"}, {"measurement": "AUC(0-t)", "setting": "[4]; SAD3 (240 mg/1440 mg), Day 3, mean, read-out: AUClast", "value": 1060, "unit": "µg·h/mL"}, {"measurement": "AUC(0-t)", "setting": "[4]; highest dose (240 mg/1440 mg), read-out: AUClast", "value": 1060, "unit": "µg·h/mL"}, {"measurement": "AUC(0-inf)", "setting": "[4]; [6]", "value": 39.6, "unit": "µg·h/mL"}, {"measurement": "half-life", "setting": "[4]; [6]", "value": 9.1, "unit": "h"}, {"measurement": "AUC(0-inf)", "setting": "[4]; [7]", "value": 58.8, "unit": "µg·h/mL"}, {"measurement": "half-life", "setting": "[4]; [7]", "value": 8.6, "unit": "h"}, {"measurement": "AUC(0-inf)", "setting": "[4]; [8]", "value": 119, "unit": "µg·h/mL"}, {"measurement": "half-life", "setting": "[4]; [8]", "value": 8.9, "unit": "h"}, {"measurement": "Cmax", "setting": "[4]; 60 mg, SAD1 (60 mg/360 mg), Day 1, mean", "value": 7430, "unit": "ng/mL"}, {"measurement": "Cmax", "setting": "[4]; 120 mg, SAD2 (120 mg/720 mg), Day 1, mean", "value": 13700, "unit": "ng/mL"}, {"measurement": "Cmax", "setting": "[4]; 240 mg, SAD3 (240 mg/1440 mg), Day 1, mean", "value": 26700, "unit": "ng/mL"}, {"measurement": "Cmax", "setting": "[4]; SAD1 (60 mg/360 mg), Day 3, mean", "value": 10100, "unit": "ng/mL"}, {"measurement": "Cmax", "setting": "[4]; SAD2 (120 mg/720 mg), Day 3, mean", "value": 14800, "unit": "ng/mL"}, {"measurement": "Cmax", "setting": "[4]; SAD3 (240 mg/1440 mg), Day 3, mean", "value": 35600, "unit": "ng/mL"}, {"measurement": "distance run more than vehicle-treated mice at end of experimental period", "setting": "[5]", "value": "at least 1 km/day"}]}]}
